Laboratory results: patent US12068729B2, “Anti-factor XII/XIIa antibodies and uses thereof” (Regeneron Pharmaceuticals, Inc., priority 2018, dated 2024)

What was measured:
[1] = system: Intrinsic and Common pathways of the coagulation cascade; assay: Activated Partial Thromboplastin Time (aPTT) in pooled normal human plasma; assay type: biochemical
Description: This Example describes the inhibitory activity of selected antibodies, as determined by four functional plasma assays: 1) Activated Partial Thromboplastin Time (aPTT), 2) Prothrombin Time (PT), 3) Thrombin Generation Assay (TGA) triggered by ellagic acid and 4) TGA triggered by Tissue Factor. The aPTT test evaluates all clotting factors of the Intrinsic and Common pathways of the coagulation cascade by measuring time for a clot to form after the addition of calcium and ellagic acid, whereas the PT test evaluates all clotting factors of the Extrinsic and Common pathways of the coagulation cascade after the addition of calcium and Tissue Factor. […]
(§1) The aPTT was determined on Diagnostica Stago STart4 Hemostasis Analyzer in the following manner: A total of 50 ul of pooled normal human plasma was added to a cuvette at 37° C. […] The measured clot time for the test article concentration was normalized to baseline (no drug) plasma clot time and plotted against log molar concentration of the test article. The results were analyzed using nonlinear regression (4-parameter logistics) with Prism 5 software (GraphPad) to obtain doubling time concentration.

[2] = system: thrombin generated via the Extrinsic and Common pathways; assay: Thrombin Generation Assay (TGA) triggered by Tissue Factor; assay type: biochemical, human
Description: (§2) This Example describes the inhibitory activity of selected antibodies, as determined by four functional plasma assays: 1) Activated Partial Thromboplastin Time (aPTT), 2) Prothrombin Time (PT), 3) Thrombin Generation Assay (TGA) triggered by ellagic acid and 4) TGA triggered by Tissue Factor. The aPTT test evaluates all clotting factors of the Intrinsic and Common pathways of the coagulation cascade by measuring time for a clot to form after the addition of calcium and ellagic acid, whereas the PT test evaluates all clotting factors of the Extrinsic and Common pathways of the coagulation cascade after the addition of calcium and Tissue Factor. The TGA triggered by ellagic acid measures the rate and amount of thrombin generated via the Intrinsic and Common pathways whereas TGA triggered by Tissue Factor measures the rate and amount of thrombin generated via the Extrinsic and Common pathways.
The thrombin generation profile was determined in a Thermo Scientific Hemker Thrombinoscope in the following manner: A total of 55 ul of pooled normal human plasma was added to a well of a microplate at 37° C. Then 5 ul of a 2× serially diluted test article (antibody or small molecule inhibitor) in PBS was added to the well of the microplate and allowed to incubate for 30 min. 15 ul of Tissue Factor PPP Reagent (Diagnostica Stago) was added to the well and allowed to incubate for 45 min. Then 15 ul of Fluo Flu Cal substrate (Diagnostica Stago) was added immediately before a continuous 90 min reading of the microplate. The measured real-time thrombin concentration values were plotted against time to yield a thrombogram profile for each concentration of the test article used.

[3] = system: Extrinsic and Common pathways of the coagulation cascade; assay: Prothrombin Time (PT) in pooled normal human plasma; assay type: biochemical
Description: as §2
as §1, with “PT” for “aPTT”, “manner.” for “manner:”

[4] = system: thrombin generated via the Intrinsic and Common pathways; assay: Thrombin Generation Assay (TGA) triggered by ellagic acid; assay type: biochemical, human; settings: for Concentration required for ↑ lag time by 2× / Concentration required for ↓ endogenous thrombin potential by ½ / Concentration required for ↓ thrombin peak by ½: Intrinsic Pathway Activation with Ellagic Acid
Description: as §2
The thrombin generation profile was determined in a Thermo Scientific Hemker Thrombinoscope in the following manner: A total of 55 ul of pooled normal human plasma was added to a well of a microplate at 37° C. Then 5 ul of a 2× serially diluted test article (antibody or small molecule inhibitor) in PBS was added to the well of the microplate and allowed to incubate for 30 min. 15 ul of APPT-XL Ellagic Acid (Thermo Scientific) was diluted in MP reagent then added to the well and allowed to incubate for 45 min. Then 15 ul of Fluo Flu Cal substrate (Diagnostica Stago) was added immediately before a continuous 90 min reading of the microplate. The measured real-time thrombin concentration values were plotted against time to yield a thrombogram profile for each concentration of the test article used.

[5] = conc. of drug required to increase clotting time by 2-fold over baseline
[6] = dose response curves, pooled normal human plasma
[7] = Extrinsic Pathway Activation with Tissue Factor

COc1ccc(-n2nc(C(N)=O)c3c2C(=O)N(c2ccc(N4CCCCC4=O)cc2)CC3)cc1 [Apixaban, reference compound]
C2xt of activated Partial Thromboplastin Time (aPTT) - Intrinsic Pathway [1, 5]: 7 µM | effect on plasma aPTT (in words) [1, 6]: prolonged both aPTT and PT with uM concentrations | Concentration required for ↑ lag time by 2× [2, 7]: 250 nM | Concentration required for ↓ endogenous thrombin potential by ½ [2, 7]: 250 nM | Concentration required for ↓ thrombin peak by ½ [2, 7]: 62.5 nM | effect on thrombin generation (in words) ([2]; plasma triggered by Tissue Factor): dose dependently inhibited thrombin generation | C2xt of Prothrombin Time (PT) - Extrinsic Pathway [3, 5]: 3.5 µM | effect on plasma PT (in words) [3, 6]: prolonged both aPTT and PT with uM concentrations | Concentration required for ↑ lag time by 2× [4]: > 500 nM | Concentration required for ↓ endogenous thrombin potential by ½ [4]: > 500 nM | Concentration required for ↓ thrombin peak by ½ [4]: > 500 nM | Concentration required for ↑ lag time by 2× ([4]; dash cells, dose up to 500 nM): — (no effect on thrombin generation with a dose up to 500 nM) | Concentration required for ↓ endogenous thrombin potential by ½ ([4]; dash cells, dose up to 500 nM): — (no effect on thrombin generation with a dose up to 500 nM) | Concentration required for ↓ thrombin peak by ½ ([4]; dash cells, dose up to 500 nM): — (no effect on thrombin generation with a dose up to 500 nM) | effect on thrombin generation (in words) ([4]; plasma triggered by ellagic acid): dose dependent reduction in thrombin generation
